US9695155B2, “Herbicidal substituted pyrimidinyloxy benzene compounds” (E. I. DU PONT DE NEMOURS AND COMPANY, priority 2013, dated 2017)

Tests used:
[1] = test system: ragweed; test: Test C postemergence; assay type: in vivo, Ambrosia elatior; conditions: for Plant response rating, Ragweed: scale 0 to 100 (0 no effect, 100 complete control)
How it was run: (§1)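 Seeds were sown in loam–sand blend and sprayed preemergence, while plants at 1- to 4-leaf stage (2–18 cm) in peat-based medium received postemergence sprays; test chemicals were formulated in a non-phytotoxic solvent with surfactant. After 13–15 days in a greenhouse, injury was rated visually against controls, 0 (no effect) to 100 (complete control).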

[2] = test system: pigweed; test: Test A preemergence; assay type: in vivo, Amaranthus retroflexus; conditions: for Pigweed plant response rating: 0 to 100 scale, 0 no effect, 100 complete control, approx. 10 days
How it was run: (§2)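 Injury scores run from 0, no effect, to 100, complete control, judged by eye against untreated plants roughly 10 days after treatment. Chemicals carried a surfactant in a non-phytotoxic solvent and went onto loam–sand soil preemergence or onto one- to two-leaf seedlings postemergence.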

[3] = test system: yellow nutsedge; test: Test C preemergence; assay type: in vivo, Cyperus esculentus; conditions: for Nutsedge, Yellow plant response rating: preemergence; for Plant response rating, Nutsedge, Yellow: Preemergence, 31 g ai/ha, scale 0 to 100, 0 no effect, 100 complete control
How it was run: as §1

[4] = test system: lambsquarters; test: Test C postemergence; assay type: in vivo, Chenopodium album; conditions: for Plant response rating, Lambsquarters: scale 0 to 100 (0 no effect, 100 complete control)
How it was run: as §1

[5] = test system: large (Lg) crabgrass; test: Test C postemergence; assay type: in vivo, Digitaria sanguinalis
How it was run: as §1

[6] = test system: large (Lg) crabgrass; test: Test A preemergence; assay type: in vivo, Digitaria sanguinalis
How it was run: as §2

[7] = test system: barnyardgrass; test: Test A preemergence; assay type: in vivo, Echinochloa crus-galli
How it was run: as §2

[8] = test system: giant foxtail; test: Test C preemergence; assay type: in vivo, Setaria faberii; conditions: for Foxtail, Giant plant response rating: preemergence; for Plant response rating, Foxtail, Giant: Preemergence, 31 g ai/ha, scale 0 to 100, 0 no effect, 100 complete control
How it was run: as §1

[9] = test system: morningglory; test: Test C postemergence; assay type: in vivo, Ipomoea coccinea; conditions: for Plant response rating, Morningglory: scale 0 to 100 (0 no effect, 100 complete control)
How it was run: as §1

[10] = test system: rice; test: Test B flooded paddy test; assay type: in vivo, Oryza sativa; conditions: Flood, 250 g ai/ha; 0 to 100 scale where 0 is no effect and 100 is complete control
How it was run: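 Plants at 2-leaf stage; pots flooded to 3 cm above soil and compound applied directly into paddy water, depth held throughout. After 13 to 15 days in greenhouse, visual rating versus controls on 0 (no effect) to 100 (complete control) scale.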

[11] = test system: oilseed rape; test: Test C postemergence; assay type: in vivo, Brassica napus; conditions: for Plant response rating, Oilseed Rape: scale 0 to 100 (0 no effect, 100 complete control)
How it was run: as §1

[12] = test system: Italian ryegrass; test: Test C postemergence; assay type: in vivo, Lolium multiflorum; conditions: for Plant response rating, Ryegrass, Italian: scale 0 to 100 (0 no effect, 100 complete control)
How it was run: as §1

[13] = test system: wild oat; test: Test C postemergence; assay type: in vivo, Avena fatua; conditions: for Plant response rating, Oat, Wild: scale 0 to 100 (0 no effect, 100 complete control)
How it was run: as §1

[14] = test system: corn; test: Test A preemergence; assay type: in vivo, Zea mays
How it was run: as §2

[15] = test system: large (Lg) crabgrass; test: Test A postemergence; assay type: in vivo, Digitaria sanguinalis
How it was run: as §2

[16] = 125 g ai/ha, postemergence, visual rating
[17] = 125 g ai/ha, 0 to 100 scale where 0 is no effect and 100 is complete control
[18] = 16 g ai/ha, scale 0 to 100 (0 no effect, 100 complete control)
[19] = 62 g ai/ha, scale 0 (no effect) to 100 (complete control)
[20] = 125 g ai/ha, scale 0 (no effect) to 100 (complete control)
[21] = 125 g ai/ha, postemergence, visual rating, scale 0 to 100 (0 no effect, 100 complete control)
[22] = Postemergence, 62 g ai/ha, scale 0 to 100 (0 no effect, 100 complete control)
[23] = 500 g ai/ha, 0 to 100 scale, 0 no effect, 100 complete control, approx. 10 days
[24] = 16 g ai/ha, postemergence, 0 is no effect, 100 is complete control
[25] = 1000 g ai/ha, 0 to 100 scale, 0 no effect, 100 complete control

SMILES	Plant response rating, Ragweed [1, 16]	Plant response rating, Ragweed ([1]; Postemergence, 62 g ai/ha)	Nutsedge, Yellow plant response rating [3, 18]	Nutsedge, Yellow plant response rating [3, 19]	Nutsedge, Yellow plant response rating [3, 20]	Plant response rating, Nutsedge, Yellow [3]	Plant response rating, Lambsquarters [4, 16]	Plant response rating, Lambsquarters ([4]; Postemergence, 62 g ai/ha)	Plant response rating, Crabgrass, Large [5, 21]	Plant response rating, Crabgrass, Large [5, 22]	Foxtail, Giant plant response rating [8, 18]	Foxtail, Giant plant response rating [8, 19]	Foxtail, Giant plant response rating [8, 20]	Plant response rating, Foxtail, Giant [8]	Plant response rating, Morningglory [9, 16]	Plant response rating, Morningglory ([9]; Postemergence, 62 g ai/ha)	Plant response rating, Rice [10]	Plant response rating, Oilseed Rape [11, 16]	Plant response rating, Oilseed Rape ([11]; Postemergence, 62 g ai/ha)	Plant response rating, Ryegrass, Italian [12, 16]	also measured
N#Cc1cnn(-c2c(C#N)cccc2Oc2ncc(F)cn2)c1 [Compound 111]	90	70	0	15	50	0	90	80	35	10	15	100	100	100	98	80	0	80	60	0	Plant response rating, Pigweed [2, 17]: 100; Pigweed plant response rating ([2]; 500 g ai/ha): 100; Crabgrass, Large plant response rating ([5]; 16 g ai/ha, postemergence, visual rating, scale 0 to 100 (0 no effect, 100 complete control), 13 to 15 days): 5; Plant response rating, Crabgrass, Large [6, 17]: 100; Crabgrass, Large plant response rating [6, 23]: 100; Plant response rating, Barnyardgrass [7, 17]: 90; Barnyardgrass plant response rating [7, 23]: 100; Plant response rating, Ryegrass, Italian ([12]; Postemergence, 62 g ai/ha): 0; Plant response rating, Oat, Wild [13, 16]: 5; Plant response rating, Oat, Wild ([13]; Postemergence, 62 g ai/ha): 5; Plant response rating, Corn [14, 17]: 20; Corn plant response rating [14, 23]: 50; Plant response rating, Crabgrass, Large [15, 17]: 60; Plant response rating, Crabgrass, Large ([15]; 500 g ai/ha, 0 to 100 scale where 0 is no effect and 100 is complete control): 90
N#Cc1cn(-c2c(Br)cccc2Oc2ncc(Cl)cn2)nn1 [Compound 116]	70	25	0	10	40	5	80	50	30	15	0	85	95	10	80	60	0	40	10	5	Plant response rating (0 to 100), Ragweed [1, 24]: 5; Pigweed plant response rating ([2]; 1000 g ai/ha): 100; Plant response rating (0 to 100), Lambsquarters [4, 24]: 5; Plant response rating (0 to 100), Crabgrass, Large [5, 24]: 5; Plant response rating, Crabgrass, Large [6, 25]: 100; Plant response rating, Barnyardgrass [7, 25]: 90; Plant response rating (0 to 100), Morningglory [9, 24]: 50; Plant response rating (0 to 100), Oilseed Rape [11, 24]: 5; Plant response rating (0 to 100), Ryegrass, Italian [12, 24]: 5; Plant response rating, Ryegrass, Italian ([12]; Postemergence, 62 g ai/ha): 5; Plant response rating (0 to 100), Oat, Wild [13, 24]: 5; Plant response rating, Oat, Wild [13, 16]: 15; Plant response rating, Oat, Wild ([13]; Postemergence, 62 g ai/ha): 5; Plant response rating, Corn [14, 25]: 30; Plant response rating, Crabgrass, Large [15, 25]: 100
